# Reference: patent publication US20050106243A1, “Process for the preparation of free-flowing, pulverized atorvastatin adsorbates” (priority 2003, published 2005)
# Experiment: Impurity profile (sum of all impurities, HPLC) at start and after storage
# Assay type: physicochemical
# Procedure: All HPLC measurements were performed with an […].
# Impurity profile: Sum of all the impurities: HPLC, in %: […]
structure (smiles),measurement,setting,value
"CC(C)c1c(C(=O)Nc2ccccc2)c(-c2ccccc2)c(-c2ccc(F)cc2)n1CC[C@@H](O)C[C@@H](O)CC(=O)[O-].CC(C)c1c(C(=O)Nc2ccccc2)c(-c2ccccc2)c(-c2ccc(F)cc2)n1CC[C@@H](O)C[C@@H](O)CC(=O)[O-].[Ca+2] (relative stereo) [amorphous atorvastatin calcium, calcium salt of [R-(R*,R*)]-2-(4-fluorophenyl)-β,δ-dihydroxy-5-(1-methylethyl)-3-phenylphenylamino)carbonyl]-1H-pyrrol-1-heptanoic acid]","Sum of all the impurities, HPLC",15 days (70° C./75% relative humidity),1.92%
same,"Sum of all the impurities, HPLC",Start,1.07%
